Here are results for 18 compounds from ChEMBL document CHEMBL1144951, “Synthesis of N-alkylated derivatives of imidazole as antibacterial agents” (2003).

Values after ≈ are worked out from the molar mass of the structure shown.

Assay type in all cases: functional
The subject of assay [1] is Escherichia coli. In words: Minimum inhibitory concentration (MIC) against Escherichia coli.
Assay [2] deals with Escherichia coli. Description: Minimum bacterial concentration (MBC) against Escherichia coli.
The subject of assay [3] is Pseudomonas aeruginosa. Description: Minimum inhibitory concentration (MIC) against Pseudomonas aeruginosa.
Assay [4] has as its system Pseudomonas aeruginosa. Description: Minimum bacterial concentration (MBC) against Pseudomonas aeruginosa.
For assay [5], the system named is Staphylococcus aureus. Description: Minimum bacterial concentration (MBC) against Staphylococcus aureus.
The subject of assay [6] is Staphylococcus aureus. In words: Minimum inhibitory concentration (MIC) against Staphylococcus aureus.

The term MIC denotes the lowest concentration found to suppress growth. Higher therefore signals a need for much substance. As a reminder, the MBC is the lowest tested concentration that kills the bacteria rather than only halting them. Higher therefore signals less potent killing. With `CCn1ccnc1`, the figures for the MIC against Escherichia coli [1], against Pseudomonas aeruginosa [3] and against Staphylococcus aureus [6] were 480 µg/mL (≈ 4990 µM), 960 µg/mL (≈ 9990 µM) and 480 µg/mL (≈ 4990 µM), respectively. The MBC with Escherichia coli [2] came out at 960 µg/mL (≈ 9990 µM); in the assay with Pseudomonas aeruginosa [4], 1920 µg/mL (≈ 20000 µM); in the assay on Staphylococcus aureus [5], 960 µg/mL (≈ 9990 µM).

As for `CCCCCCCCn1cc([N+](=O)[O-])nc1C`, the values for the MIC with Escherichia coli [1] and with Staphylococcus aureus [6] were 31 µg/mL (≈ 130 µM) and 24 µg/mL (≈ 100 µM), respectively. Further, the MBC turned out to be 60 µg/mL (≈ 251 µM) in the assay on Escherichia coli [2] and 48 µg/mL (≈ 201 µM) against Staphylococcus aureus [5].

In the case of `CCCCCCn1ccnc1`, the MIC with Escherichia coli [1] was found to be 91 µg/mL (≈ 598 µM); in the assay with Pseudomonas aeruginosa [3], 122 µg/mL (≈ 801 µM); against Staphylococcus aureus [6], 46 µg/mL (≈ 302 µM). The MBC in the assay with Escherichia coli [2] came to 182 µg/mL (≈ 1200 µM); with Pseudomonas aeruginosa [4], 243 µg/mL (≈ 1600 µM); against Staphylococcus aureus [5], 91 µg/mL (≈ 598 µM).

Take `CCCCCCCn1ccnc1`: the MIC against Escherichia coli [1] came out at 50 µg/mL (≈ 301 µM); against Pseudomonas aeruginosa [3], 83 µg/mL (≈ 499 µM); in the assay on Staphylococcus aureus [6], 33 µg/mL (≈ 198 µM). Further, the figures for the MBC in the assay on Escherichia coli [2], with Pseudomonas aeruginosa [4] and in the assay on Staphylococcus aureus [5] were 100 µg/mL (≈ 601 µM), 166 µg/mL (≈ 998 µM) and 66 µg/mL (≈ 397 µM), respectively.

`CCCCCCCCCCn1ccnc1`: the MIC in the assay with Escherichia coli [1] came out at 208 µg/mL (≈ 998 µM); in the assay with Pseudomonas aeruginosa [3], 416 µg/mL (≈ 2000 µM); in the assay on Staphylococcus aureus [6] it was 208 µg/mL (≈ 998 µM). For the same compound, the MBC came out at 416 µg/mL (≈ 2000 µM) against Escherichia coli [2], 832 µg/mL (≈ 3990 µM) against Pseudomonas aeruginosa [4] and 416 µg/mL (≈ 2000 µM) against Staphylococcus aureus [5].

For the compound `CCCCCCCCCn1ccnc1`, the MIC in the assay with Escherichia coli [1] is 19 µg/mL (≈ 97.8 µM); in the assay on Pseudomonas aeruginosa [3], 39 µg/mL (≈ 201 µM); against Staphylococcus aureus [6] it was 10 µg/mL (≈ 51.5 µM). Further, the MBC with Escherichia coli [2] worked out at 39 µg/mL (≈ 201 µM); in the assay on Pseudomonas aeruginosa [4], 78 µg/mL (≈ 401 µM); in the assay on Staphylococcus aureus [5] it was 19 µg/mL (≈ 97.8 µM).

For `CCCCCn1ccnc1`, the MIC with Escherichia coli [1] amounted to 97 µg/mL (≈ 702 µM); against Pseudomonas aeruginosa [3] it was 138 µg/mL (≈ 998 µM); against Staphylococcus aureus [6], 69 µg/mL (≈ 499 µM). Moreover, the MBC in the assay on Escherichia coli [2] amounted to 193 µg/mL (≈ 1400 µM); in the assay on Pseudomonas aeruginosa [4], 276 µg/mL (≈ 2000 µM); in the assay on Staphylococcus aureus [5], 138 µg/mL (≈ 998 µM).

Consider `CCCCCCCCCCCCCCn1ccnc1`, for which the results for the MIC in the assay with Escherichia coli [1], against Pseudomonas aeruginosa [3] and in the assay with Staphylococcus aureus [6] were 21100 µg/mL (≈ 79900 µM), 23800 µg/mL (≈ 89800 µM) and 19800 µg/mL (≈ 74900 µM), respectively. Further, the MBC in the assay with Escherichia coli [2] came out at 22400 µg/mL (≈ 84900 µM); in the assay with Pseudomonas aeruginosa [4], 25100 µg/mL (≈ 94800 µM); against Staphylococcus aureus [5] it was 21100 µg/mL (≈ 79900 µM).

For `CCCCCCn1ccnc1C`, the minimum inhibitory concentration (MIC) in the assay on Escherichia coli [1] and in the assay on Staphylococcus aureus [6] was 25 µg/mL (≈ 150 µM) throughout. Also, the minimum bactericidal concentration (MBC) against Escherichia coli [2] and with Staphylococcus aureus [5] was 50 µg/mL (≈ 301 µM) each time.

On to `CCCCCCCCCCCCn1ccnc1C`, for which the minimal inhibitory concentration (MIC) against Escherichia coli [1] and against Staphylococcus aureus [6] was 17500 µg/mL (≈ 69900 µM) each time. Besides, the MBC in the assay with Escherichia coli [2] and with Staphylococcus aureus [5] was 18800 µg/mL (≈ 74900 µM) throughout.

For the compound `CCCCCCCCn1ccnc1`, the MIC with Escherichia coli [1] was 45 µg/mL (≈ 250 µM); against Pseudomonas aeruginosa [3], 54 µg/mL (≈ 300 µM); in the assay on Staphylococcus aureus [6], 27 µg/mL (≈ 150 µM). The MBC against Escherichia coli [2] was determined as 90 µg/mL (≈ 499 µM); against Pseudomonas aeruginosa [4] it was 108 µg/mL (≈ 599 µM); with Staphylococcus aureus [5] it was 45 µg/mL (≈ 250 µM).

For `CCCCCCCCCCCn1ccnc1`, the MIC against Escherichia coli [1] was 1110 µg/mL (≈ 4990 µM); in the assay with Pseudomonas aeruginosa [3], 2220 µg/mL (≈ 9980 µM); in the assay on Staphylococcus aureus [6] it was 1110 µg/mL (≈ 4990 µM). Also, the values for the MBC against Escherichia coli [2], against Pseudomonas aeruginosa [4] and with Staphylococcus aureus [5] were 2220 µg/mL (≈ 9980 µM), 4440 µg/mL (≈ 20000 µM) and 2220 µg/mL (≈ 9980 µM), respectively.

For the compound GENTAMICIN, the MIC against Escherichia coli [1] was found to be 64 µg/mL; against Pseudomonas aeruginosa [3], 8 µg/mL; against Staphylococcus aureus [6], 2 µg/mL. For the same compound, the MBC with Escherichia coli [2] came out at 128 µg/mL; with Pseudomonas aeruginosa [4] it was 12 µg/mL; with Staphylococcus aureus [5], 4 µg/mL.

Consider `CCCCn1ccnc1`, for which the values for the MIC with Escherichia coli [1], with Pseudomonas aeruginosa [3] and in the assay with Staphylococcus aureus [6] were 99 µg/mL (≈ 797 µM), 248 µg/mL (≈ 2000 µM) and 87 µg/mL (≈ 701 µM), respectively. Further, the values for the MBC in the assay on Escherichia coli [2], in the assay with Pseudomonas aeruginosa [4] and in the assay on Staphylococcus aureus [5] were 198 µg/mL (≈ 1590 µM), 496 µg/mL (≈ 3990 µM) and 174 µg/mL (≈ 1400 µM), respectively.

For `CCCn1ccnc1`, the MIC against Escherichia coli [1] amounted to 110 µg/mL (≈ 999 µM); in the assay with Pseudomonas aeruginosa [3], 550 µg/mL (≈ 4990 µM); in the assay on Staphylococcus aureus [6], 44 µg/mL (≈ 399 µM). Besides, the values for the MBC with Escherichia coli [2], against Pseudomonas aeruginosa [4] and against Staphylococcus aureus [5] were 220 µg/mL (≈ 2000 µM), 1100 µg/mL (≈ 9990 µM) and 198 µg/mL (≈ 1800 µM), respectively.

Turning to `CCCCn1cc([N+](=O)[O-])nc1C`, the MIC against Escherichia coli [1] worked out at 18 µg/mL (≈ 98.2 µM); against Staphylococcus aureus [6], 17 µg/mL (≈ 92.8 µM). Further, the MBC came to 37 µg/mL (≈ 202 µM) in the assay with Escherichia coli [2] and 33 µg/mL (≈ 180 µM) against Staphylococcus aureus [5].

`CCCCCCCCCCCCCn1ccnc1`: the MIC is 18800 µg/mL (≈ 74900 µM) in the assay on Escherichia coli [1], 20000 µg/mL (≈ 79900 µM) in the assay with Pseudomonas aeruginosa [3] and 17500 µg/mL (≈ 69900 µM) in the assay with Staphylococcus aureus [6]. The figures for the MBC with Escherichia coli [2], in the assay with Pseudomonas aeruginosa [4] and with Staphylococcus aureus [5] were 20000 µg/mL (≈ 79900 µM), 21200 µg/mL (≈ 84900 µM) and 18800 µg/mL (≈ 74900 µM), respectively.

As for `CCCCCCCCCCCCn1ccnc1`, the MIC in the assay on Escherichia coli [1] is 14200 µg/mL (≈ 59900 µM); in the assay on Pseudomonas aeruginosa [3], 16500 µg/mL (≈ 69900 µM); in the assay with Staphylococcus aureus [6] it was 14200 µg/mL (≈ 59900 µM). Besides, the MBC was 15300 µg/mL (≈ 64900 µM) in the assay with Escherichia coli [2], 17700 µg/mL (≈ 74900 µM) in the assay on Pseudomonas aeruginosa [4] and 15300 µg/mL (≈ 64900 µM) in the assay on Staphylococcus aureus [5].
